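Results reflect a 48-hour exposure of cells in 96-well plates to compound at five concentrations. The concentration for 50% growth inhibition is given as GI50. TGI: total growth inhibition.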
Key:
Assay in all cases: growth of human tumour cells (NCI), 48 h
CAKI-1 renal = tested on: CAKI-1 renal
786-0 renal = tested on: 786-0 renal
HCT-116 colon = tested on: HCT-116 colon
HCC-2998 colon = tested on: HCC-2998 colon
HS 578T breast = tested on: HS 578T breast
IGROV1 ovarian = tested on: IGROV1 ovarian
MOLT-4 leukemia = tested on: MOLT-4 leukemia
TK-10 renal = tested on: TK-10 renal
DMS 273 small cell lung = tested on: DMS 273 small cell lung

Row | SMILES | GI50 (CAKI-1 renal) [µM] | TGI (CAKI-1 renal) [µM] | GI50 (786-0 renal) [µM] | TGI (786-0 renal) [µM] | GI50 (HCT-116 colon) [µM] | TGI (HCT-116 colon) [µM] | GI50 (HCC-2998 colon) [µM] | TGI (HCC-2998 colon) [µM] | GI50 (HS 578T breast) [µM] | TGI (HS 578T breast) [µM] | GI50 (IGROV1 ovarian) [µM] | TGI (IGROV1 ovarian) [µM] | GI50 (MOLT-4 leukemia) [µM] | TGI (MOLT-4 leukemia) [µM] | GI50 (TK-10 renal) [µM] | TGI (TK-10 renal) [µM] | TGI (DMS 273 small cell lung) [µM]
1 | O=C1C(Cl)=C(Nc2ccc3cn[nH]c3c2)C(=O)c2ccccc21 | 1.47 | 2.78 | 1.81 | 3.21 | 1.43 | 2.78 | 2.02 | 3.99 | 0.5 | 3.88 | 0.198 | 2.02 | 1.47 | 4.15 | 3.79 | 8.06 | –
2 | CC(=O)O[C@H]1[C@@H]2[C@@H]3[C@@H](C[C@H]1C)[C@@H](C)CO[C@@]1(C)CC/C=C(/C)C[C@@H]2O[C@@H]31 | – | > 100 | – | > 100 | – | > 100 | – | > 100 | – | – | – | > 100 | – | > 100 | – | > 100 | > 100
3 | COc1ccc(C2NCCc3c2[nH]c2ccccc32)cc1CN1CCN(c2ccc(F)cc2)CC1 (centres undefined) | 1.57 | 3.31 | 1.71 | 3.17 | 1.62 | 3 | 1.61 | 3.33 | 1.6 | 3.75 | 2.5 | 6.29 | 1.97 | 5.25 | 3.2 | 9.65 | –
4 | COc1ccc(/C=C(/C(=O)N2CCCC2)c2cc(OC)c(OC)c(OC)c2)cc1N | 2.35 | > 100 | 2.7 | > 100 | 1.08 | > 100 | 6.76 | > 100 | 2.41 | > 100 | 3.93 | > 100 | 4.74 | > 100 | 11.1 | > 100 | –
5 | Cc1cc(S(=O)(=O)Nc2nc3ccsc3c(=O)n2Cc2ccco2)c(S)cc1Cl | > 100 | > 100 | > 100 | > 100 | > 100 | > 100 | > 100 | > 100 | 81 | > 100 | > 100 | > 100 | 19.4 | 84.2 | > 100 | > 100 | –
6 | CCOC(=O)/C=C1\SC(=Nc2ccc(C#N)cc2)N(CCN2C(=O)/C(=C/C(=O)OCC)SC2=Nc2ccc(C#N)cc2)C1=O | 3.57 | 14.9 | 2.08 | 6.33 | 0.441 | 2.38 | 2.4 | 6.61 | 3.84 | > 70.5 | 1.99 | 10.7 | 1.15 | > 100 | 14.8 | 36.6 | –
7 | Cn1ccc(=Nc2ccc(NC(=O)c3ccc(N=c4ccn(C)c5ccc([N+](=O)[O-])cc45)cc3)cc2)cc1 | > 100 | > 100 | 56.1 | > 100 | 3.76 | > 100 | 3.85 | > 100 | 16.4 | 92.6 | 11.2 | > 100 | > 100 | > 100 | > 100 | > 100 | –
